Data published in paper PMC4865820, “Branched Peptide, B2088, Disrupts the Supramolecular Organization of Lipopolysaccharides and Sensitizes the Gram-negative Bacteria” (Scientific Reports, 2016).
Positions of bridges follow the written chain, without caps; N, C: chain ends. Residues, ends and D or L forms follow the SMILES beside them. Chains are numbered I, II in the order given.

Tests used:
[1] = tested on: K. pneumonia 4299; assay: microbe, parasite or virus in culture; assay type: cell-based, K. pneumoniae; conditions: 24 h
Procedure: (§1) MIC of each peptide was determined using the microdilution method in a 96 well microtitre plates (SPL Life Sciences Co., Ltd, Korea). Two-fold serial dilutions of each peptide in Mueller-Hinton Broth (MHB) was prepared from a 1 mg/ml stock solution of the peptide in the same broth, to obtain a final concentration in the range of 0.0976–50 μg/ml in each well. Bacterial suspensions (P. aeruginosa ATCC 27853, P. aeruginosa 4877, P. aeruginosa 23155, K. pneumoniae ATCC 10031 and K. pneumoniae 4299) were prepared by suspending the overnight cultured bacteria in saline and adjusting the inoculum to ~10^8 colony forming units (CFU) per ml. A further 150-fold dilution was then prepared in MHB to achieve a final cell density of 10^5–10^6 CFU/ml. In each well, 100 μl of inoculum was mixed with the equal volume of peptides at their 2× concentration. Positive and negative controls contained 200 μl of inoculum (without any peptide) and broth alone (no peptide/inoculum) respectively. Another negative control in which MHB containing 200 μl of peptide alone in its highest concentration tested (50 μg/ml) was also included to ensure that the optical density measured in the test wells was not due to turbidity of the peptides in solution. The 96 well polystyrene plates were then incubated at 37 °C for 24 h and the optical density at 600 nm (OD600) was measured every 30 min continuously using a TECAN microplate reader (TECAN Infinite 200, Austria). All the experiments were performed in two independent duplicates and the MIC was determined as the lowest peptide concentration in which no visible growth was observed.

[2] = tested on: P. aeruginosa ATCC 9027; assay: Outer membrane permeability assay (NPN); assay type: cell-based; conditions: no unit in table; Fig. S5 axis [Peptide], μM; 10 μM NPN, 5 mM HEPES pH 7.4, ex 355/em 405 nm; average of two titrations; read-out: PC50 (peptide concentration for half-maximal NPN intensity, OM permeability)
Procedure: The ability of each peptide to permeabilize the OM of Gram-negative organisms was determined using the hydrophobic fluorescent probe 1-N-phenylnaphthylamine (NPN) as previously reported. P. aeruginosa ATCC 9027 cells from an overnight MHB culture were harvested after centrifuging at 3000 rpm for 10 minutes. The pellet was washed twice, suspended in 5 mM HEPES (N- 2-hydroxyethylpiperazine-N’-2 ethanesulfonic acid) buffer (pH 7.4) and adjusted to an OD600 of 0.200. A suspension containing 600 μl of bacteria cells and 1 μl of a concentrated stock solution of NPN was mixed into a 10 mm stirred quartz cuvette so that the final concentration of the probe remained 10 μM. Aliquots containing 1 μl of each peptide in various concentrations (100, 50, 25, 15, 10, 5, 2.5 and 1 μg/ml) were added upon NPN dye stabilization. The fluorescence intensity was monitored using a Quanta Master spectrophotometer with a constant slit width of 0.5 nm, excitation and emission wavelengths set at 355 nm and 405 nm respectively. The peptide concentration required for half-maximal intensity (PC50) was determined by sigmoidal curve fitting using Graphpad Prism software. The experimental data is average of two independent titration experiments.

[3] = tested on: P. aeruginosa ATCC 27853; assay: microbe, parasite or virus in culture; assay type: cell-based; conditions: ATCC 27853, 24 h
Procedure: as §1

[4] = tested on: K. pneumoniae ATCC10031; assay type: cell-based; conditions: ATCC10031, 24 h
Procedure: as §1

[5] = tested on: P. aeruginosa 23155; assay type: cell-based; conditions: 23155, 24 h
Procedure: as §1

[6] = tested on: LPS (E. coli serotype 055:B5); assay: BODIPY TR cadaverine (BC) displacement assay with LPS; assay type: binding; conditions: no unit in table; ED50 values in μM; 5 mM HEPES pH 7.4; duplicates; read-out: BC50 (LPS binding)
Source text: To investigate the interaction of B2088 with LPS, we performed the BODIPY TR cadaverine (BC) displacement assay reported by Wood et al.[22]. The probe binds to the lipid A part of the LPS with moderate affinity and can be displaced by putative LPS-binding molecules. The method was used to probe the affinity of polycationic molecules and LPS binding proteins. First, we determined the affinity of polymyxin B (PMB), a lipopeptide cyclic antibiotic which has a high affinity for LPS. […] Figure 1a,b show the concentration-dependent displacement of LPS/lipid A-bound BC upon addition of B2088. […] To confirm the importance of branching, we determined the BC50 for a linear retrodimer having the amino acid sequence, […] (Fig. 1d). The determined value was 2-fold higher (3.9 ± 0.1 μM) than that of B2088, confirming a weaker affinity of the linear peptide.
The BC displacement assay was used to determine the ability of each peptide to bind to LPS. The florescent probe, BODIPY TR cadaverine (BC) was purchased from Molecular Probes/ Invitrogen (USA). A stock solution containing 1 mg/ml of LPS (E. coli serotype 055:B5) was prepared in dimethyl sulfoxide (DMSO) and another stock solution containing 1 mg/ml of BC dye was prepared in 5 mM HEPES buffer (pH 7.4). The optimum saturation concentration of BC:LPS ratio was standardized following the protocol provided by Wood et al. (22). From the BC stock, 240 μl was mixed with 500 μl from the LPS stock solution in 5 mM HEPES buffer (pH 7.4) to prepare 20 ml of BC:LPS mixture. Two-fold serial dilutions of each peptide in 5 mM HEPES buffer (pH 7.4) was prepared from their 1 mg/ml stock solutions to obtain a final range of 0.02–25.6 μM. The BC:LPS mixture was added to 100 μl of each peptide congener in a 1:1 ratio in each well of a 96-well black Costar™ polystyrene microtitre plate (Corning Incorporated, NY, USA). The maximum fluorescence intensity (Fmax) was determined using a mixture containing 100 μl PMB (50 μg/ml) and 100 μl BC:LPS solution, as PMB is considered the ‘gold standard’ for LPS-sequestering agents. The minimum fluorescence intensity (F0) was measured using 200 μl of BC:LPS mixture to determine the background noise for this experiment. Fluorescence measurements for each peptide (F) were determined using a microplate reader (Model: TECAN Infinite 200, Austria) with excitation and emission wavelengths set at 580 nm and 620 nm respectively. The percentage of BC displacement was then calculated using the formula: […]
The experiments were performed in duplicates and the effective concentration required for 50% displacement of BC dye (ED50) from LPS with respect to PMB was determined by curve fitting using Graphpad Prism (CA, USA). A higher ED50 value for the peptide indicates a lower affinity for LPS.

[7] = tested on: P. aeruginosa DR4877/07; assay type: cell-based; conditions: for Fractional inhibitory concentration of peptide/PMB, combination with Chloarm / Fractional inhibitory concentration of peptide/PMB, combination with Erythro / Fractional inhibitory concentration of peptide/PMB, combination with Levo / Fractional inhibitory concentration of peptide/PMB, combination with Tobra: first number in parenthesis; for Fractional inhibitory concentration of antibiotic, Chloarm combination / Fractional inhibitory concentration of antibiotic, Erythro combination / Fractional inhibitory concentration of antibiotic, Levo combination / Fractional inhibitory concentration of antibiotic, Tobra combination: second number in parenthesis
Procedure: (§2) The synergism between peptides with conventional antibiotics was evaluated using checkerboard assays. For a comparison polymyxin B (PMB) was also tested against each antibiotic. From their stock solutions, two-fold dilutions of each antibiotic and peptide to 1× MIC were prepared in MHB. 50 μl of each peptide concentration was added into the wells of a 96-well polystyrene plates (SPL Life Sciences Co. Ltd, Korea) in a horizontal orientation and the same volume of each antibiotic concentration were then added in a vertical orientation. Bacterial suspensions were prepared in MHB to yield final cell density of ~10^6 CFU/ml and 100 μl of bacterial suspension was mixed with each peptide-antibiotic combinations. This procedure was repeated for wells containing 200 μl of peptide alone and 200 μl of antibiotic alone in various concentrations. The positive and negative controls contained 200 μl of inoculum and MHB alone respectively. The plates were incubated at 37 °C for 24 hours and the optical density at 600 nm (OD600) was monitored as before. Fractional inhibitory concentration index (FICI) for all antibiotic- peptide combinations was calculated through the summation of (MIC of peptide in the combination/ MIC of peptide alone) and (MIC of antibiotics in combination/MIC of antibiotic alone). The experiments were performed in two independent duplicates and the combinations that gave the lowest FICI values was reported.

[8] = tested on: P. aeruginosa ATCC 27853; assay type: cell-based; conditions: ATCC 27853; for Fractional inhibitory concentration of peptide/PMB, combination with Genta: first number in parenthesis; for Fractional inhibitory concentration of antibiotic, Genta combination: second number in parenthesis
Procedure: as §2

Compound	Minimum Inhibitory Concentration against K. pneumonia 4299 [1]	EC50 [2]	Minimum Inhibitory Concentration against P. aeruginosa ATCC 27853 [3]	Minimum Inhibitory Concentration against K. pneumoniae ATCC10031 [4]	Minimum Inhibitory Concentration against P. aeruginosa 23155 [5]	EC50 [6]	Fractional inhibitory concentration of peptide/PMB, combination with Chloarm [7]	Fractional inhibitory concentration of peptide/PMB, combination with Erythro [7]	Fractional inhibitory concentration of peptide/PMB, combination with Levo [7]	Fractional inhibitory concentration of peptide/PMB, combination with Tobra [7]	Fractional inhibitory concentration of antibiotic, Chloarm combination [7]	Fractional inhibitory concentration of antibiotic, Erythro combination [7]	Fractional inhibitory concentration of antibiotic, Levo combination [7]	Fractional inhibitory concentration of antibiotic, Tobra combination [7]	Fractional inhibitory concentration of peptide/PMB, combination with Genta [8]	Fractional inhibitory concentration of antibiotic, Genta combination [8]
C[C@H](NC(=O)[C@H](C)NC(=O)[C@H](CCCCN)NC(=O)[C@H](CCCNC(=N)N)NC(=O)CNC(=O)[C@@H](N)CCCNC(=N)N)C(=O)N[C@@H](CCCNC(=N)N)C(=O)N[C@@H](CCCNC(=N)N)C(=O)NCCCC[C@H](NC(=O)[C@H](CCCNC(=N)N)NC(=O)[C@H](CCCNC(=N)N)NC(=O)[C@H](C)NC(=O)[C@H](C)NC(=O)[C@H](CCCCN)NC(=O)[C@H](CCCNC(=N)N)NC(=O)CNC(=O)[C@@H](N)CCCNC(=N)N)C(=O)N[C@@H](CCCCN)C(=O)O (I: H-RGRKAARRKK-OH / II: H-RGRKAARR; amide I:9-II:C; N-terminus and C-terminus assumed)	23 µM	21.7 ± 0.8 µM	11.5 µM	11.5 µM	11.5 µM	2.1 ± 0.2 µM	0.5	(0.5,0.5)	0.5	0.5	0.13	(0.5,0.5)	0.25	0.25	0.5	0.06
N=C(N)NCCC[C@H](NC(=O)CNC(=O)[C@@H](N)CCCNC(=N)N)C(=O)N[C@@H](CCCCN)C(=O)N[C@@H](Cc1ccccc1)C(=O)N[C@@H](Cc1ccccc1)C(=O)N[C@@H](CCCNC(=N)N)C(=O)N[C@@H](CCCNC(=N)N)C(=O)NCCCC[C@H](NC(=O)[C@H](CCCNC(=N)N)NC(=O)[C@H](CCCNC(=N)N)NC(=O)[C@H](Cc1ccccc1)NC(=O)[C@H](Cc1ccccc1)NC(=O)[C@H](CCCCN)NC(=O)[C@H](CCCNC(=N)N)NC(=O)CNC(=O)[C@@H](N)CCCNC(=N)N)C(=O)N[C@@H](CCCCN)C(=O)O (I: H-RGRKFFRRKK-OH / II: H-RGRKFFRR; amide I:9-II:C; N-terminus and C-terminus assumed)	10.1 µM	10 ± 0.3 µM	5.0 µM	5.0 µM	5.0 µM	0.93 ± 0.01 µM	0.25	(0.5,0.5)	(0.5,0.5)	0.25	0.13	(0.5,0.5)	(0.5,0.5)	0.06	(0.25,0.25)	(0.25,0.25)
CC[C@H](C)[C@H](NC(=O)[C@H](CCCCN)NC(=O)[C@H](CCCNC(=N)N)NC(=O)CNC(=O)[C@@H](N)CCCNC(=N)N)C(=O)N[C@H](C(=O)N[C@@H](CCCNC(=N)N)C(=O)N[C@@H](CCCNC(=N)N)C(=O)NCCCC[C@H](NC(=O)[C@H](CCCNC(=N)N)NC(=O)[C@H](CCCNC(=N)N)NC(=O)[C@@H](NC(=O)[C@@H](NC(=O)[C@H](CCCCN)NC(=O)[C@H](CCCNC(=N)N)NC(=O)CNC(=O)[C@@H](N)CCCNC(=N)N)[C@@H](C)CC)[C@@H](C)CC)C(=O)N[C@@H](CCCCN)C(=O)O)[C@@H](C)CC (I: H-RGRKIIRRKK-OH / II: H-RGRKIIRR; amide I:9-II:C; N-terminus and C-terminus assumed)	5.3 µM	17 ± 0.2 µM	2.7 µM	2.7 µM	5.3 µM	1.44 ± 0.02 µM	0.5	(0.5,0.5)	0.5	0.5	0.25	(0.5,0.5)	0.13	0.06	0.5	0.01
